# Assay results from a melting point compilation (Tetko et al.; mined from patent text by program, amines drawn as free bases though some values may be those of a salt).
row,Structure (SMILES),melting point
1,O=C(NNC(c1ccccc1)(c1ccccc1)c1ccccc1)c1ccccc1,130 to 131 °C
2,Cn1cc(C2OC(=O)NC2=O)c2ccccc21 (stereo not given),152 to 154 °C
3,COC(=O)C(C)Oc1cc(C)ccc1COc1ccc(-n2c(=O)cc(C(F)(F)F)n(C)c2=O)cc1 (stereo not given),52 to 54 °C
4,Nc1ccccc1C(=O)Nc1ccc(C(F)(F)F)cc1,160 to 161 °C
5,ClCc1csc(/C=C/c2ccccc2)n1,88 to 89 °C
6,CCc1cc(C)c2c(n1)-c1ccccc1C2=O,68 to 70 °C
7,O=CNc1ccccc1-c1cc2ccccc2[nH]1,147 to 149 °C
8,CNC(=O)OC1c2ccccc2C(=O)N1c1ccc2ccc(Cl)nc2n1 (stereo not given),260 °C
9,Cc1cc(-c2nnn(C)n2)cc(C)c1OCCCC(O)c1nccn1C (stereo not given),151 to 154 °C
10,CN(C)C=Nc1c(Cl)cc(NCc2ccc(N(C)C)cc2F)cc1Cl,118 to 120 °C
11,Cc1cc(-c2ncn3c(C(F)(F)F)cc(-c4ccc(Cl)c(C)c4)nc23)ccn1,246 °C
12,COCCOC12CC(CO)CN(C)C1Cc1c[nH]c3cccc2c13 (stereo not given),188 to 193 °C
13,Nc1ccccc1Oc1cccc2c1NC(=O)C2,210 to 212 °C
14,CCOC(=O)c1c(CSc2ccccc2)n(C)c2cc(Br)c(O)c(CN(C)C)c12,127 to 128 °C
15,Clc1ncc(Br)n2nc(SCc3ccccc3)nc12,109 to 110 °C
16,CON=C(C)c1ccc(NS(C)(=O)=O)c(Oc2ccc(F)cc2F)c1,118 to 120 °C
17,CC(C)c1cccc(C(C)C)c1NC(=O)CNC(c1ccccc1)c1cccc2ccccc12 (stereo not given),149 to 151 °C
18,Cc1[nH]c(-c2ccccc2)nc1-c1ccc(Cl)cc1Cl,222 to 224 °C
19,CN1CCN(c2ccc3ccccc3n2)CC1,110 to 112 °C
20,COc1ccc(-n2nc(C(F)(F)F)nc2-c2ccc(S(C)(=O)=O)cc2)cc1,156 °C

row,Structure (SMILES),melting point
1,O=C(CCc1cccnc1)NC(Cc1c[nH]c2ccccc12)C(=O)CCc1cc(C(F)(F)F)cc(C(F)(F)F)c1 (stereo not given),123 to 124 °C
2,COc1ccc(CC(=O)NCCc2cccc3c2OCO3)cc1OC,124 °C
3,C#Cc1cccc(-n2c(=O)oc3ccc(-c4ccc(F)cc4F)cc3c2=O)c1,195 to 196 °C
4,COCc1nc2c(OC)c3c(=O)n(C)c(COC)nc3c(OC)c2c(=O)n1C,223 to 224 °C
5,CCOC(=O)C1[C@@H]2[C@@H](O)[C@@H]3O[C@H](c4cccc(OC)c4)OC[C@H]3O[C@H]12 (stereo not given in full),107 °C
6,Fc1ccccc1-c1nnc(-c2ccccc2C(F)(F)F)o1,68 to 69 °C
7,COC(OC)(c1ccncc1)C(NC(=O)NCCCc1ccccc1)c1ccc(F)cc1 (stereo not given),162 to 166 °C
8,C=CCN1CC(C)N(C(c2cccnc2)c2cccc(O)c2)CC1C (stereo not given),115 to 118 °C
9,COc1ccc(-c2c(C(C)=O)c(Cn3cncn3)nc3cc(OC)c(OC)cc23)cc1OC,180 to 181 °C
10,OC1c2cc(OCc3ccc4ccccc4n3)ccc2OCC1Oc1ccccc1 (stereo not given),151 to 153 °C
11,O=[N+]([O-])c1cc(Cl)ccc1CBr,42 to 43 °C
12,C[C@H](NCc1ccc(OCc2ccccc2F)c(Cc2ccccc2F)c1)C(N)=O,161 °C
13,Fc1cccc(C2(N3CCC3)CCC3(CC2)NCCc2c3[nH]c3ccccc23)c1 (stereo not given),186 to 188 °C
14,COc1cccc(CN2Cc3cc(OC)c(OCc4ccccc4)cc3C(O)C2)c1 (stereo not given),115 to 116 °C
15,Cc1c(CN(C)CCc2ccc(NS(C)(=O)=O)cc2)oc2ccc([N+](=O)[O-])cc12,124 °C
16,Sc1nc(CCCc2cc(Cl)cc(Cl)c2)c[nH]1,98 to 99 °C
17,[N-]=[N+]=C1C(=O)Nc2ccc(F)cc21,209 to 210 °C
18,CC(=O)n1ncn(N=Cc2cccnc2)c1=O,164 to 166 °C
19,COC(=O)C(Cc1ccccc1)Oc1c(Br)cc(-c2ccc(-c3nc(-c4ccc(C(F)(F)F)cc4)oc3C)cc2)cc1Br (stereo not given),70 to 72 °C
20,CC(=Cc1ccc(Oc2ccc(Cl)cc2)cc1)[N+](=O)[O-],69 to 71 °C

# Next, values leading:
row,melting point,Structure (SMILES)
1,218 to 220 °C,O=C(Nc1ccc(C(=O)N2Cc3cccn3Cc3ccccc32)cc1)c1cc(Cl)ccc1Cl
2,100 to 102 °C,CCOC(=O)C(C)OCc1cc2nc(Cl)ccc2n1S(=O)(=O)c1ccc2nc(NC(C)=O)sc2c1 (stereo not given)
3,115 to 117 °C,C/C(=C(\Br)C=O)c1ccc2c(c1)C(C)(C)CCC2(C)C
4,99 to 100 °C,CC1(C)CCC(OC2=C(c3ccc(S(C)(=O)=O)cc3)C(C)(C)OC2=O)C1 (stereo not given)
5,106 to 109 °C,CCOC(C(=O)O)c1ccc2c(c1)C(C)(C)CCC2(C)C (racemic)
6,128 to 131 °C,CCCCCCCc1ccc(C(=O)Cc2ccccc2C(=O)O)cc1
7,70 to 73 °C,Cc1cc(C)cc(C(=O)N2CCN(C(=O)CN(CCO)C3CCN(Cc4ccccc4)CC3)C(c3ccc(Cl)c(Cl)c3)C2)c1 (racemic)
8,107 to 109 °C,CCOC(=O)c1c(C)oc(=O)c(-c2c(C)cc(C)cc2C)c1OC(C)=O
9,101 to 103 °C,CCON=C(CC)C1=C(O)CC(c2ccc3c(c2)N(COC)C(=O)CO3)CC1=O (stereo not given)
10,74 to 75 °C,NC(=O)CCC(O)c1ccccc1 (stereo not given)
11,60 to 62 °C,CC(C)(C)OC(=O)N1CCC(c2ccc([N+](=O)[O-])cc2)CC1
12,88 to 89 °C,CCOC(=O)c1c(O)c2ccc(F)cc2c(=O)n1CC1CC1
13,156 to 157 °C,CCCc1nc2c(N)nc3ccccc3c2n1CCC(=O)OCC
14,196 °C,COc1c(C(C)C)cc(S(N)(=O)=O)c(C)c1C(=O)NCC1CCCN1C1CCCC1 (stereo not given)
15,62 to 63 °C,COC(=O)c1ccc2c(c1)OC(C)(C)C(=O)N2C(C)C
16,172 °C,Cc1ccc(S(=O)(=O)n2c(CCCC(=O)O)cc3nc(Cl)ccc32)cc1
17,120 to 121 °C,COCCCNS(=O)(=O)NC(=O)/C(C)=C/c1ccc(OC(C)C)cc1Oc1ncc(C(F)(F)F)cc1Cl
18,54 to 56 °C,CC(COc1ccc(CC2SC(=O)NC2=O)cc1)N1CC(COc2ccccc2)OC1=O (stereo not given)
19,162 to 163 °C,CCOC(=O)c1c(COC(C)=O)cccc1S(=O)(=O)NC(=O)Nc1nc(OC)cc(OC)n1
20,163 to 165 °C,CN(C(=O)c1ccc2nonc2c1)C1CCN(C=O)CC1
21,136 to 138 °C,CCN(CCCC1CCN(CC(=O)N2c3ccccc3C(=O)Nc3cccnc32)CC1)C(=O)C(C)(C)CC
22,99 to 100 °C,CC(=O)OCc1nn(C(C)=O)c2cccc(OCc3ccccc3)c12
23,208 to 209 °C,COc1ccc2nc(NC(=O)CO)sc2c1
24,113 to 115 °C,CCOC(=O)COc1ccc2c(c1)C[C@H](NC(=O)OC(C)(C)C)CC2
25,116 to 119 °C,COC(=O)[C@H](CN1CCC(=C2c3ccccc3C=Cc3ccccc32)CC1)NC(=O)OCc1ccccc1
26,114 to 115 °C,CCOC(=O)C(Cl)=Cc1cc(-n2c(Cl)nc(C(F)(F)F)cc2=O)ccc1Cl
27,120 to 121 °C,N[C@@H](Cc1ccccc1)C(=O)N1CCC[C@H]1C(=O)OCc1ccccc1
28,169 to 171 °C,NC(=O)c1cccc(NS(=O)(=O)c2cc(S(=O)(=O)Nc3cccc(C(N)=O)c3)c3cc(O)ccc3c2)c1

row,melting point,Structure (SMILES)
1,94 °C,O=C(O)CCNc1ccccc1CNC(=O)C1Cc2ccccc2N1S(=O)(=O)c1ccc(-c2cccc(C(F)(F)F)c2)cc1 (stereo not given)
2,203 to 204 °C,Cn1cnc(S(=O)(=O)NCCc2ccc(OCC(=O)O)cc2)c1
3,165 °C,O=C1N(c2cc(Cl)nc(Cl)c2)C(=O)C2(Cc3ccc(O)cc3)CCCN12 (stereo not given)
4,140 to 142 °C,O=C(O)c1ccc2c(c1)COCC2
5,78.6 °C,CC(C)Oc1ccc(C[C@H](NC(=O)[C@@H]2CCCCN2S(=O)(=O)c2cccc(C(F)(F)F)c2)C(=O)NC2CCOCC2)cc1
6,93 to 93.5 °C,O=C(c1cc(Cl)ccc1NC(=O)C(Cl)(Cl)Cl)C1CCCCC1
7,222 to 224 °C,Cc1ccc(-c2cc(C)c(C(=O)N=C(N)N)cc2S(C)(=O)=O)cc1
8,133 to 136 °C,O=CN1CCC(C(=O)N2CCN3C(=O)OC(c4ccccc4)(c4ccccc4)C3C2)CC1 (stereo not given)
9,110 to 111 °C,CCOCN1C(C)=C(C(C)=O)C(c2cccc([N+](=O)[O-])c2)C(C(=O)OCC)=C1C (stereo not given)
10,196 to 198 °C,O=C1N(C(c2ccccc2)c2ccccc2)c2cccc(F)c2C12COc1cc3c(cc12)OCCO3 (stereo not given)
11,190 to 191 °C,COCCNC(=O)Nc1ccc([N+](=O)[O-])cc1O
12,120 to 122 °C,CC(c1cc2ccccc2s1)N(OC(=O)OC(C)(C)C)C(N)=O (stereo not given)
13,129 to 131 °C,N#CCCNC(=O)C1=CC(CF)(CF)Oc2ccc(C(F)(F)F)cc21
14,193 to 195 °C,O=P(O)(O)C(O)(CCC1CCCCN1)P(=O)(O)O (stereo not given)
15,208 °C,CCCNc1ccc(C(=O)O)cc1[N+](=O)[O-]
16,222 °C,Clc1nc(NCc2ccc3c(c2)OCO3)c2c3c(sc2n1)CCCC3
17,220 to 224 °C,Cc1nc2c(C#N)cnn2c2c1CCN2C(C)(C)C
18,81 to 82 °C,COCCN(C)c1nccc(Oc2ccc(NC(=O)c3cc(F)cc(N4CCCCC4)c3)c3ccccc23)n1
19,116 to 119 °C,CC(C)N(CCC1(c2ccccc2Cl)CC(=O)NC1=O)C(C)C (stereo not given)
20,148 to 149 °C,Cc1c2c(c(Oc3ccc(C(C)C)cc3)c(C)c1NC(=O)CC(C)(C)C)OC(C)(C)C2
21,137 to 140 °C,Cc1ccc(F)cc1C(=O)Nc1ccc(C(=O)N2Cc3ccnn3Cc3ccccc32)c(Cl)c1
22,99.9 °C,N#CC1(C(C(=O)O)C(=O)O)CCCCC1
23,85 °C,O=C(O)CCc1ccc(CNC(=O)C2Cc3ccccc3N2S(=O)(=O)c2ccc(-c3cccc(C(F)(F)F)c3)cc2)cc1 (stereo not given)
24,143 to 145 °C,N#CC1(c2ccc(Cl)c(Cl)c2)CC(Cl)=C(Cl)N1CCO (stereo not given)
25,201 °C,OP(O)C(NC(c1ccccc1)c1ccccc1)c1cccs1 (stereo not given)
26,195 to 196 °C,O=C(O)C1CCc2c(c3cc(F)ccc3n2C(=O)c2ccc(F)cc2)C1 (stereo not given)
27,150 to 151 °C,CCCSC1(C(F)(F)F)CN(C2CC2)C(=O)Nc2ccc(Cl)cc21 (stereo not given)
